Measurements reported in PMC2228077, “The bioavailability of oral GI147211 (GG211), a new topoisomerase I inhibitor” (British Journal of Cancer, 1997).
Counter-ions that a name gives are not always drawn. Like-named read-outs stand apart in the source and are kept apart here.

What was measured:
[1] = dog, in vivo; cited from earlier work
[2] = tested on: xenografts of human cancers, including HT-29 and SW-48 colon, PC-3 prostate, MX-1 breast, H460 lung, SKOV3 ovarian and KB epidermoid carcinomas; set-up: method as in Emerson et al, 1993, 1995; conditions: ref Emerson et al, 1993, 1995; cited from earlier work
[3] = Toxicity assessment (CTC criteria) in patients, oral day 1 + i.v. days 2-5 every 3 weeks; type: in vivo, human; conditions: for Abdominal discomfort, drug-related toxicity per course / Diarrhoea, drug-related toxicity per course / Nausea, drug-related toxicity per course / Stomatitis, drug-related toxicity per course: CTC grade 1; for Abdominal discomfort, drug-related toxicity per course / Diarrhoea, drug-related toxicity per course / Nausea, drug-related toxicity per course / Stomatitis, drug-related toxicity per course / Fatigue, drug-related toxicity per course / Vomiting, drug-related toxicity per course: Table 2
Source text: British Journal of Cancer (1997) 76(7), 946-951 ? 1997 Cancer Research Campaign The bloavailability of oral Gil 47211 (GG21 1), a new topoisomerase I inhibitor CJH Gerrits', JHM Schellens', GJ Creemers', P Wissel2, ASTh Planting', JF Pritchard2, S DePee2, M de Boer-Dennert', M Harteveld' and J Verweij' 'Department of Medical Oncology, Rotterdam Cancer Institute (Daniel den Hoed Kliniek) and University Hospital, The Netherlands; 2Glaxo Wellcome, Department of Pharmacokinetics, NC, USA Summary Topoisomerase I inhibitors are new compounds of interest for cancer chemotherapy. We performed a study with Gl147211, a new semisynthetic camptothecin analogue, to determine the absolute bioavailability of the drug given orally. […] Gi147211 was given orally on day 1 and as a 30-min infusion daily on days 2-5. The treatment course was repeated every 3 weeks. In subsequent patient cohorts, the dose of the oral formulation was escalated from 1.5 mg m-2 to 6.0 mg m-2; the dose for i.v. administration was fixed at 1.2 mg m-2. Plasma pharmacokinetics was performed on day 1 and 2 of the first course and on day 1 of the second course using a validated high-performance liquid chromatographic assay. […] Keywords: G1147211 (GG211); bioavailability; topoisomerase I inhibitor; phase I study G1147211 [7-(methylpiperazinomethylene)-10,11-ethylenedioxy- 20(S)-camptothecin dihydrochloride] is a water-soluble semisyn- thetic analogue of camptothecin (CPT). […] Its further development was stopped because of unpredictable and severe myelosuppression, gastro- intestinal toxicity and haemorrhagic cystitis (Gottlieb et al, 1970; Creaven et al, 1972; Muggia et al, 1972). Interest in CPT was renewed in the 1980s, because topoiso- merase I was identified as the single cellular target of CPT (Hsiang et al, 1988 1989), and an overexpression of topoisomerase I was found in various tumour cell lines but not in normal tissues (Giovanella et al, 1989; Hirabayashi et al, 1992). Topoisomerase I is a nuclear enzyme that resolves topological problems of the torsionally strained (supercoiled) DNA by forming a covalent adduct between topoisomerase I and the DNA, termed the cleav- able complex. This catalytic intermediate creates single-strand DNA breaks, allowing the DNA molecule to rotate around the intact DNA strand at the cleavage site, leading to a relaxation of Received 29 November 1996 Revised 27 March 1997 Accepted 1 April 1997 Correspondence to: CJH Gerrits, Department of Medical Oncology, Rotterdam Cancer Institute, (Daniel den Hoed Kliniek) and University Hospital, Groene Hilledijk 301, 3075 EA Rotterdam, The Netherlands the DNA molecule, and in this way replication, transcription and other DNA functions can proceed. These enzyme-bridged breaks are then resealed by topoisomerase I (Champoux, 1976; Muller, 1985; Muller et al, 1985; Camilloni et al, 1989). […] It has been documented that camptothecin (CPT) interferes with the breakage-reunion process of topoiso- merase I by stabilizing the enzyme-DNA cleavable complexes (Liu et al, 1989).

[4] = mouse, in vivo; cited from earlier work
[5] = tested on: solid tumour; assay: Tumour response (WHO criteria) in patients; type: in vivo, human; conditions: 17 evaluable patients
Source text: British Journal of Cancer (1997) 76(7), 946-951 ? 1997 Cancer Research Campaign The bloavailability of oral Gil 47211 (GG21 1), a new topoisomerase I inhibitor CJH Gerrits', JHM Schellens', GJ Creemers', P Wissel2, ASTh Planting', JF Pritchard2, S DePee2, M de Boer-Dennert', M Harteveld' and J Verweij' 'Department of Medical Oncology, Rotterdam Cancer Institute (Daniel den Hoed Kliniek) and University Hospital, The Netherlands; 2Glaxo Wellcome, Department of Pharmacokinetics, NC, USA Summary Topoisomerase I inhibitors are new compounds of interest for cancer chemotherapy. We performed a study with Gl147211, a new semisynthetic camptothecin analogue, to determine the absolute bioavailability of the drug given orally. […] Gi147211 was given orally on day 1 and as a 30-min infusion daily on days 2-5. The treatment course was repeated every 3 weeks. In subsequent patient cohorts, the dose of the oral formulation was escalated from 1.5 mg m-2 to 6.0 mg m-2; the dose for i.v. administration was fixed at 1.2 mg m-2. Plasma pharmacokinetics was performed on day 1 and 2 of the first course and on day 1 of the second course using a validated high-performance liquid chromatographic assay. […]

[6] = set-up: method as in Gerrits et al, 1996; conditions: i.v. daily x5 every 3 weeks; ref Gerrits et al, 1996; cited from earlier work
[7] = oral 6.0 mg m-2 level, discussion

CC[C@@]1(O)C(=O)OCc2c1cc1n(c2=O)Cc2c-1nc1cc3c(cc1c2CN1CCN(C)CC1)OCCO3 [GI147211, 7-(methylpiperazinomethylene)-10,11-ethylenedioxy-20(S)-camptothecin dihydrochloride]
absolute bioavailability [1]: 16% | activity against xenografts of human cancers [2]: significant cytotoxicity | ANC nadir ([3]; 6.0 mg m-2 level, the one case with CTC grade IV): 9e+07 L⁻¹ | courses in which erythrocyte transfusions were given ([3]; CTC grade I-II anaemia occurred regularly): 24 out of 47 | platelet count, range ([3]; CTC grade III-IV thrombocytopenia): 4-40 x 109 l-1 | courses with fatigue CTC grade II ([3]; Table 2 footnote c): Four | Abdominal discomfort, drug-related toxicity per course ([3]; Total, n = 47 courses): 6 courses | Diarrhoea, drug-related toxicity per course ([3]; Total, n = 47 courses): 1 courses | Nausea, drug-related toxicity per course ([3]; Total, n = 47 courses): 24 courses | Stomatitis, drug-related toxicity per course ([3]; Total, n = 47 courses): 2 courses | Fatigue, drug-related toxicity per course ([3]; Total, n = 47 courses): 16 courses | myelotoxicity ([3]; first two dose levels (1.5 and 3.0 mg m-2 oral)): not observed | duration of severe granulocytopenia, range ([3]; human, in vivo): 7 to 19 days | duration of severe thrombocytopenia, range ([3]; human, in vivo): 3 to 16 days | median duration of severe granulocytopenia (first occurrence to recovery to CTC grade II) ([3]; human, in vivo): 7 days | median duration of severe thrombocytopenia (first occurrence to recovery to CTC grade II) ([3]; human, in vivo): 8 days | nausea and vomiting after oral administration compared with intravenous dosing ([3]; human, in vivo): not different | neutropenic sepsis (main serious adverse event) ([3]; human, in vivo): one | patients complaining of mild fatigue ([3]; human, in vivo): 34% | patients with treatment delay because of slow recovery of mild leucopenia ([3]; human, in vivo): six | renal and liver toxicity ([3]; human, in vivo): not reported | diarrhoea after a single oral administration ([3]; human, in vivo, po): did not result in diar- rhoea | tolerability of oral administration ([3]; human, in vivo, po): well tolerated | courses with mild leucopenia CTC grade I-II ([3]; of 47 courses): 17 courses | mild leucopenia CTC grade I-II, share of courses ([3]; of 47 courses): 36.2% | nausea CTC grade I, share of courses ([3]; of 47 courses): 51.6% | vomiting CTC grade I, number of courses ([3]; of 47 courses): 9 courses | vomiting CTC grade I, share of courses ([3]; of 47 courses): 19.1% | reversible CTC grade I peripheral neuropathy ([3]; one patient): 2.1% | day of the platelet nadir [3, 7]: 8 days | day of the platelet nadir, range [3, 7]: 3 to 16 days | onset of neutropenia CTC grade III-IV ([3]; oral 6.0 mg m-2 day 1 + i.v. 1.2 mg m-2 days 2-5, discussion): 7 to 19 days | Abdominal discomfort, drug-related toxicity per course ([3]; oral dose level 1.5 mg m-2): 0 courses | Diarrhoea, drug-related toxicity per course ([3]; oral dose level 1.5 mg m-2): 0 courses | Nausea, drug-related toxicity per course ([3]; oral dose level 1.5 mg m-2): 4 courses | Stomatitis, drug-related toxicity per course ([3]; oral dose level 1.5 mg m-2): 0 courses | Fatigue, drug-related toxicity per course ([3]; oral dose level 1.5 mg m-2): 4 courses | Vomiting, drug-related toxicity per course ([3]; oral dose level 1.5 mg m-2): 2 courses | Abdominal discomfort, drug-related toxicity per course ([3]; oral dose level 3.0 mg m-2): 3 courses | Diarrhoea, drug-related toxicity per course ([3]; oral dose level 3.0 mg m-2): 0 courses | Nausea, drug-related toxicity per course ([3]; oral dose level 3.0 mg m-2): 4 courses | Stomatitis, drug-related toxicity per course ([3]; oral dose level 3.0 mg m-2): 1 courses | Fatigue, drug-related toxicity per course ([3]; oral dose level 3.0 mg m-2): 2 courses | Vomiting, drug-related toxicity per course ([3]; oral dose level 3.0 mg m-2): 2 courses | courses postponed for 1 week because of mild leucopenia with slow recovery ([3]; oral dose level 6.0 mg m-2): 10 out of 30 | courses with CTC grade III-IV granulocytopenia ([3]; oral dose level 6.0 mg m-2): 5 out of 30 | courses with CTC grade III-IV thrombocytopenia ([3]; oral dose level 6.0 mg m-2): 4 out of 30 | Abdominal discomfort, drug-related toxicity per course ([3]; oral dose level 6.0 mg m-2): 3 courses | Diarrhoea, drug-related toxicity per course ([3]; oral dose level 6.0 mg m-2): 1 courses | Nausea, drug-related toxicity per course ([3]; oral dose level 6.0 mg m-2): 16 courses | Stomatitis, drug-related toxicity per course ([3]; oral dose level 6.0 mg m-2): 1 courses | Fatigue, drug-related toxicity per course ([3]; oral dose level 6.0 mg m-2): 10 courses | Vomiting, drug-related toxicity per course ([3]; oral dose level 6.0 mg m-2): 7 courses | abdominal discomfort, mostly cramping, share of courses ([3]; six courses): 13% | nadir for neutropenia ([3]; summary): 8 days | nadir for thrombocytopenia ([3]; summary): 15 days | alopecia grade I, share of patients ([3]; three patients): 17% | median platelet count ([3]; three patients with CTC grade III-IV thrombocytopenia): 2.5e+10 L⁻¹ | mild headache, share of courses ([3]; two courses, not dose dependent): 4.2% | vomiting CTC grade II, share of cycles ([3]; two cycles): 4.2% | absolute bioavailability [4]: 2-5% | best response to treatment [5]: stable disease in seven patients | main toxicity [6]: myelosuppression
